From the NIST ThermoML archive (doi:10.1021/je0201370)
Numbers after ± are expanded uncertainties.

How the values were obtained:
[1] = 298.1 K; 101.33 kPa; Liquid; vibrating tube
[2] = excess molar enthalpy (molar enthalpy of mixing); xn = mol fraction of the nth substance listed; details: 101 kPa, Liquid

c1ccccc1 [benzene]
Details	mass density [kg/m3]
[1]	873.45 ± 0.23

CCCCCCO [hexan-1-ol]
Details	mass density [kg/m3]
[1]	815.16 ± 0.42

CCCCCCO [hexan-1-ol] + c1ccccc1
[2]
Details	excess molar enthalpy [kcal/mol]
298 K, x1 = 0.0619	0.155 ± 0.00287
298 K, x1 = 0.0988	0.197 ± 0.00359
298 K, x1 = 0.1383	0.231 ± 0.0043
298 K, x1 = 0.1909	0.258 ± 0.00478
298 K, x1 = 0.2287	0.273 ± 0.00502
298 K, x1 = 0.2675	0.283 ± 0.00526
298 K, x1 = 0.3137	0.289 ± 0.00526
298 K, x1 = 0.3792	0.291 ± 0.00526
298 K, x1 = 0.4153	0.284 ± 0.00526
298 K, x1 = 0.4625	0.271 ± 0.00502
298 K, x1 = 0.5107	0.261 ± 0.00478
298 K, x1 = 0.5648	0.242 ± 0.00454
298 K, x1 = 0.6192	0.217 ± 0.00406
298 K, x1 = 0.7214	0.163 ± 0.00311
298 K, x1 = 0.7711	0.139 ± 0.00263
298 K, x1 = 0.8482	0.0908 ± 0.00191
298 K, x1 = 0.8884	0.0691 ± 0.00143
298 K, x1 = 0.979	0.0136 ± 0.000717
308 K, x1 = 0.037	0.115 ± 0.00239
308 K, x1 = 0.0647	0.173 ± 0.00335
308 K, x1 = 0.1001	0.217 ± 0.00406
308 K, x1 = 0.1428	0.256 ± 0.00478
308 K, x1 = 0.1815	0.279 ± 0.00502
308 K, x1 = 0.2272	0.299 ± 0.0055
308 K, x1 = 0.2476	0.306 ± 0.0055
308 K, x1 = 0.3195	0.317 ± 0.00574
308 K, x1 = 0.3867	0.322 ± 0.00598
308 K, x1 = 0.463	0.313 ± 0.00574
308 K, x1 = 0.4675	0.31 ± 0.00574
308 K, x1 = 0.5017	0.303 ± 0.0055
308 K, x1 = 0.5463	0.288 ± 0.00526
308 K, x1 = 0.593	0.266 ± 0.00478
308 K, x1 = 0.6577	0.231 ± 0.0043
308 K, x1 = 0.7485	0.177 ± 0.00335
308 K, x1 = 0.8067	0.137 ± 0.00263
308 K, x1 = 0.8318	0.119 ± 0.00239
308 K, x1 = 0.8867	0.0796 ± 0.00167
308 K, x1 = 0.9323	0.0478 ± 0.0012

CCCOC(=O)CC [propyl propanoate]
Details	mass density [kg/m3]
[1]	875.53 ± 0.45

CCCOC(=O)CC [propyl propanoate] + CCCCCCO
[2], 308 K
Details	excess molar enthalpy [kcal/mol]
x1 = 0.0406	0.0552 ± 0.0012
x1 = 0.089	0.116 ± 0.00239
x1 = 0.1367	0.17 ± 0.00335
x1 = 0.1766	0.208 ± 0.00382
x1 = 0.247	0.269 ± 0.00502
x1 = 0.3217	0.315 ± 0.00574
x1 = 0.3805	0.34 ± 0.00621
x1 = 0.4198	0.355 ± 0.00645
x1 = 0.4667	0.361 ± 0.00645
x1 = 0.5259	0.367 ± 0.00669
x1 = 0.5961	0.362 ± 0.00645
x1 = 0.6484	0.349 ± 0.00621
x1 = 0.6999	0.327 ± 0.00598
x1 = 0.7542	0.299 ± 0.0055
x1 = 0.7995	0.263 ± 0.00478
x1 = 0.8595	0.205 ± 0.00382
x1 = 0.9109	0.143 ± 0.00287
x1 = 0.9496	0.0872 ± 0.00191
